Patent US8071318B2, “High throughput method and system for screening candidate compounds for activity against target ion channels” (Vertex Pharmaceuticals (San Diego) LLC, priority 2000, dated 2011)

What was measured:
[1] = target: IRK1 potassium inward rectifier channel (Rattus norvegicus, UniProt Q64273)
[2] = system: voltage-activated chloride and potassium channels of wild-type HEK-293 cells
HL5 cells = assay type: cell-based

Sequence of IRK1 potassium inward rectifier channel (Q64273 whole entry): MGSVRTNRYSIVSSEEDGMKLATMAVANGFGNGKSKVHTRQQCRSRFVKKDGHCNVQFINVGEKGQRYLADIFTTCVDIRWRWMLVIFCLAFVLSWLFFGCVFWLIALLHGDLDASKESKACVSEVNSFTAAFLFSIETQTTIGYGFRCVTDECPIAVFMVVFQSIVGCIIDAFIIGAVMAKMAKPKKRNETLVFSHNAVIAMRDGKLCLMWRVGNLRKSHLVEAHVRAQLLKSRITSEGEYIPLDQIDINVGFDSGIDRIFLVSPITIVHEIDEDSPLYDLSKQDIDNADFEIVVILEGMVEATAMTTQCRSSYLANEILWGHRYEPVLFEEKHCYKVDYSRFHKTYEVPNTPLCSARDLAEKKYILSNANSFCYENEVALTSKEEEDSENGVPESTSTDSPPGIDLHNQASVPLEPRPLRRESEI

[Ba+2].[Cl-].[Cl-] [barium chloride]
voltage change during stimulation with block [1]: no detectable voltage change during stimulation until the field reaches 80 V/cm

CC[N+](CC)(CC)CC [TEA, Tetraethylammonium]
block of the negative voltage response [2]: partially blocks the response

NC1=N[C@H](O)[C@H]2[C@H]3O[C@]4(O)O[C@@H]([C@@H](O)[C@@]2(N1)[C@@H]4O)[C@]3(O)CO [TTX, tetrodotoxin]
effect on the sustained signal (HL5 cells): unaffected
